Data as given in patent publication US9475816B2, “Substituted-1,4-dihydropyrazolo[4,3-b]indoles” (TAKEDA PHARMACEUTICAL COMPANY LIMITED, priority 2012, dated 2016).
pIC50: −log10 of the molar value.

Key:
[1] = biological target: T1, human MetAP2 enzyme (Homo sapiens, UniProt P50579); assay: MetAP2 enzyme assay, MetAP2 enzyme complexed with cobalt ions; conditions: MetAP2 Co pIC50, 10 μM CoCl2; -log(IC50), IC50 molar
[2] = biological target: T1, human MetAP2 enzyme; assay: MetAP2 enzyme assay, MetAP2 enzyme complexed with manganese ions; conditions: MetAP2 Mn pIC50, 10 μM MnCl2; -log(IC50), IC50 molar
Description: DNA encoding the full-length sequence of human MetAP2 enzyme is amplified by PCR and cloned into a pFastBac expression vector (Invitrogen). Recombinant baculovirus incorporating the MetAP2 construct is generated by transposition using the Bac-to-Bac system (Invitrogen). The expression of recombinant protein is carried out by infection of Spodoptera frugiperda Sf9 cells (Invitrogen) in 5L Wave Bioreactors (Wave Biotech). Recombinant protein is isolated from cellular extracts by binding to an SP Hitrap Fast Flow or SP Sepharose (Sigma) column, and the protein is eluted using a NaCl gradient. Partially purified extracts of MetAP2 are further purified by an AKTA FPLC over a Superdex-200 column (GE). The purity of MetAP2 protein is determined on denaturing SDS-PAGE gel.
The results for each well are expressed as percent inhibition and calculated using the equation:

T1 sequence (P50579 whole entry): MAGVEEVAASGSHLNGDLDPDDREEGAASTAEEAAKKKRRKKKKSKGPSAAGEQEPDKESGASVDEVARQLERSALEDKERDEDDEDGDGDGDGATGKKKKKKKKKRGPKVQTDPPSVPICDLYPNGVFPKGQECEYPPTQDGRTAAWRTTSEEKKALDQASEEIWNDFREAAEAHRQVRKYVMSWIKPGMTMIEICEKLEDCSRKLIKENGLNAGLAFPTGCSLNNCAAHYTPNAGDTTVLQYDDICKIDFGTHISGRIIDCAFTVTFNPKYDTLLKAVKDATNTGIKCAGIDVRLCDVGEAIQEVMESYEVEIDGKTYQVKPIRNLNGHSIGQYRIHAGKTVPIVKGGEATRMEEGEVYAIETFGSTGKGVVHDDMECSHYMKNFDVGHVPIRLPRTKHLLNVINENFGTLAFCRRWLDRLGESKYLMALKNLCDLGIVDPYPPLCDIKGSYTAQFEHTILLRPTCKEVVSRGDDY

| SMILES | pIC50 [1] | pIC50 [2] |
| --- | --- | --- |
| Cn1nc(C(N)=O)cc1-n1c2ccc(F)cc2c2[nH]ncc21 [Example 48, 5-(7-Fluoropyrazolo[4,3-b]indol-4(1H)-yl)-1-methyl-1H-pyrazole-3-carboxamide] | 7.80 | 7.90 |
| O=C(c1ccc(Cn2c3ccc(F)cc3c3[nH]ncc32)cc1)N1CCOCC1 [Example 52, (4-((7-Fluoropyrazolo[4,3-b]indol-4(1H)-yl)methyl)phenyl)(morpholino)methanone] | 7.50 | 7.30 |
| CN1CCN(C(=O)c2ccc(Cn3c4ccc(F)cc4c4[nH]ncc43)cc2)CC1 [Example 53, (4-((7-Fluoropyrazolo[4,3-b]indol-4(1H)-yl)methyl)phenyl)(4-methylpiperazin-1-yl)methanone] | 7.30 | 7.10 |
| O=C(NCCO)c1ccc(Cn2c3ccc(F)cc3c3[nH]ncc32)cc1 [Example 54, 4-((7-Fluoropyrazolo[4,3-b]indol-4(1H)-yl)methyl)-N-(2-hydroxyethyl)benzamide] | 7.50 | 7.40 |
| Cc1nn(C)c(C)c1-n1c2ccc(F)cc2c2[nH]ncc21 [Example 62, 7-Fluoro-4-(1,3,5-trimethyl-1H-pyrazol-4-yl)-1,4-dihydropyrazolo[4,3-b]indole] | 7.60 | 7.50 |
| Cc1cc(N(C)CCO)ncc1-n1c2ccc(F)cc2c2[nH]ncc21 [Example 63, 2-((5-(7-Fluoropyrazolo[4,3-b]indol-4(1H)-yl)-4-methylpyridin-2-yl)(methyl)amino)ethanol] | 7.80 | 7.80 |
| COCc1[nH]ncc1-n1c2ccc(F)cc2c2[nH]ncc21 [Example 65, 7-Fluoro-4-(5-(methoxymethyl)-1H-pyrazol-4-yl)-1,4-dihydropyrazolo[4,3-b]indole] | 7.90 | 8.00 |
| Cc1c(-n2c3ccc(F)cc3c3[nH]ncc32)cnc(N)c1C [Example 68, 5-(7-Fluoropyrazolo[4,3-b]indol-4(1H)-yl)-3,4-dimethylpyridin-2-amine] | 8.00 | 8.50 |
| Cc1nc(N2CCC[C@H]2C(N)=O)ncc1-n1c2ccc(F)cc2c2[nH]ncc21 [Example 72, (2S)-1-(5-(7-Fluoropyrazolo[4,3-b]indol-4(1H)-yl)-4-methylpyrimidin-2-yl)pyrrolidine-2-carboxamide] | 8.10 | 8.50 |
| Cc1nc(N2CCC[C@@H]2C(N)=O)ncc1-n1c2ccc(F)cc2c2[nH]ncc21 [Example 73, (2R)-1-(5-(7-Fluoropyrazolo[4,3-b]indol-4(1H)-yl)-4-methylpyrimidin-2-yl)pyrrolidine-2-carboxamide] | 8.20 | 8.50 |
| Cc1nc(NCCO)ncc1-n1c2ccc(F)cc2c2[nH]ncc21 [Example 74, 2-((5-(7-Fluoropyrazolo[4,3-b]indol-4(1H)-yl)-4-methylpyrimidin-2-yl)amino)ethanol] | 8.00 | 8.10 |
| Cc1nc(N[C@H](C)CO)ncc1-n1c2ccc(F)cc2c2[nH]ncc21 [Example 75, (2R)-2-((5-(7-Fluoropyrazolo[4,3-b]indol-4(1H)-yl)-4-methylpyrimidin-2-yl)amino)propan-1-ol] | 8.10 | 8.30 |
| Cc1nc2c(cc1-n1c3ccc(F)cc3c3[nH]ncc31)ncn2C[C@H](O)CO [Example 79, (2S)-3-(6-(7-Fluoropyrazolo[4,3-b]indol-4(1H)-yl)-5-methyl-3H-imidazo[4,5-b]pyridin-3-yl)propane-1,2-diol] | 7.80 | 7.60 |
| Cc1nc2c(cc1-n1c3ccc(F)cc3c3[nH]ncc31)ncn2CCCO [Example 80, 3-(6-(7-Fluoropyrazolo[4,3-b]indol-4(1H)-yl)-5-methyl-3H-imidazo[4,5-b]pyridin-3-yl)propan-1-ol] | 7.70 | 7.50 |
| Cc1nc2c(cc1-n1c3ccc(F)cc3c3[nH]ncc31)[nH]c(=O)n2CCCO [Example 81, 6-(7-Fluoropyrazolo[4,3-b]indol-4(1H)-yl)-3-(3-hydroxypropyl)-5-methyl-1H-imidazo[4,5-b]pyridin-2(3H)-one] | 8.30 | 8.20 |
| Cc1nc2c(cc1-n1c3ccc(F)cc3c3[nH]ncc31)ncn2CCO [Example 82, 2-(6-(7-Fluoropyrazolo[4,3-b]indol-4(1H)-yl)-5-methyl-3H-imidazo[4,5-b]pyridin-3-yl)ethanol] | 8.10 | 8.00 |
| O=c1[nH]c(N2CC[C@@H](O)C2)ncc1-n1c2ccc(F)cc2c2[nH]ncc21 [Example 84, (R)-5-(7-Fluoropyrazolo[4,3-b]indol-4(1H)-yl)-2-(3-hydroxypyrrolidin-1-yl)pyrimidin-4(3H)-one] | 7.70 | 8.00 |
| Cc1nc(NC[C@@H](O)CO)ncc1-n1c2ccc(F)cc2c2[nH]ncc21 [Example 86, (2R)-3-((5-(7-Fluoropyrazolo[4,3-b]indol-4(1H)-yl)-4-methylpyrimidin-2-yl)amino)propane-1,2-diol] | 8.10 | 7.90 |

Next, values leading:

| pIC50 [1] | pIC50 [2] | SMILES |
| --- | --- | --- |
| 7.20 | 7.50 | Cc1ncncc1-n1c2ccc(F)cc2c2[nH]ncc21 [Example 49, 7-Fluoro-4-(4-methylpyrimidin-5-yl)-1,4-dihydropyrazolo[4,3-b]indole] |
| 7.60 | 7.80 | Cc1nc(N2CC[C@H](O)C2)ncc1-n1c2ccc(F)cc2c2[nH]ncc21 [Example 55, (S)-1-(5-(7-Fluoropyrazolo[4,3-b]indol-4(1H)-yl)-4-methylpyrimidin-2-yl)pyrrolidin-3-ol] |
| 7.90 | 8.10 | Cc1nc(N2CCC(C#N)CC2)ncc1-n1c2ccc(F)cc2c2[nH]ncc21 [Example 56, 1-(5-(7-Fluoropyrazolo[4,3-b]indol-4(1H)-yl)-4-methylpyrimidin-2-yl)piperidine-4-carbonitrile] |
| 7.60 | 7.90 | Cc1nc(N2CCC(F)CC2)ncc1-n1c2ccc(F)cc2c2[nH]ncc21 [Example 57, 7-Fluoro-4-(2-(4-fluoropiperidin-1-yl)-4-methylpyrimidin-5-yl)-1,4-dihydropyrazolo[4,3-b]indole] |
| 7.80 | 7.90 | Cc1nc(N2CC[C@@H](O)C2)ncc1-n1c2ccc(F)cc2c2[nH]ncc21 [Example 58, (3R)-1-(5-(7-Fluoropyrazolo[4,3-b]indol-4(1H)-yl)-4-methylpyrimidin-2-yl)pyrrolidin-3-ol] |
| 7.90 | 8.00 | Cc1nc(N2CCC(CO)CC2)ncc1-n1c2ccc(F)cc2c2[nH]ncc21 [Example 59, (1-(5-(7-Fluoropyrazolo[4,3-b]indol-4(1H)-yl)-4-methylpyrimidin-2-yl)piperidin-4-yl)methanol] |
| 8.50 | 8.00 | Cc1nc(N2CCN(C)CC2)ncc1-n1c2ccc(F)cc2c2[nH]ncc21 [Example 60, 7-Fluoro-4-(4-methyl-2-(4-methylpiperazin-1-yl)pyrimidin-5-yl)-1,4-dihydropyrazolo[4,3-b]indole] |
| 7.80 | 7.90 | Cc1ncccc1-n1c2ccc(F)cc2c2[nH]ncc21 [Example 61, 7-Fluoro-4-(2-methylpyridin-3-yl)-1,4-dihydropyrazolo[4,3-b]indole] |
| 7.80 | 7.90 | Cc1nc(N2CCNCC2)ccc1-n1c2ccc(F)cc2c2[nH]ncc21 [Example 64, 7-Fluoro-4-(2-methyl-6-(piperazin-1-yl)pyridin-3-yl)-1,4-dihydropyrazolo[4,3-b]indole] |
| 8.00 | 8.50 | Cc1nc(N2CCOCC2)ccc1-n1c2ccc(F)cc2c2[nH]ncc21 [Example 66, 4-(5-(7-Fluoropyrazolo[4,3-b]indol-4(1H)-yl)-6-methylpyridin-2-yl)morpholine] |
| 7.70 | 8.30 | COc1ccc(-n2c3ccc(F)cc3c3[nH]ncc32)c(C)n1 [Example 69, 7-Fluoro-4-(6-methoxy-2-methylpyridin-3-yl)-1,4-dihydropyrazolo[4,3-b]indole] |
| 7.70 | 8.00 | Cc1c(-n2c3ccc(F)cc3c3[nH]ncc32)ccc2ncnn12 [Example 70, 7-Fluoro-4-(5-methyl-[1,2,4]triazolo[1,5-a]pyridin-6-yl)-1,4-dihydropyrazolo[4,3-b]indole] |
| 7.90 | 8.00 | Cc1c(-n2c3ccc(F)cc3c3[nH]ncc32)ccc2[nH]ncc12 [Example 71, 7-Fluoro-4-(4-methyl-1H-indazol-5-yl)-1,4-dihydropyrazolo[4,3-b]indole] |
| 8.00 | 8.20 | Cc1nc(N2C[C@@H](O)[C@H](O)C2)ncc1-n1c2ccc(F)cc2c2[nH]ncc21 [Example 76, (3R,4R)-1-(5-(7-Fluoropyrazolo[4,3-b]indol-4(1H)-yl)-4-methylpyrimidin-2-yl)pyrrolidine-3,4-diol] |
| 8.10 | 8.00 | Cc1nc(N2CCO[C@@H](CO)C2)ncc1-n1c2ccc(F)cc2c2[nH]ncc21 [Example 77, ((2R)-4-(5-(7-Fluoropyrazolo[4,3-b]indol-4(1H)-yl)-4-methylpyrimidin-2-yl)morpholin-2-yl)methanol] |
| 7.80 | 8.00 | Cc1nc(N2CCC(O)CC2)ncc1-n1c2ccc(F)cc2c2[nH]ncc21 [Example 78, 1-(5-(7-Fluoropyrazolo[4,3-b]indol-4(1H)-yl)-4-methylpyrimidin-2-yl)piperidin-4-ol] |
| 8.20 | 8.10 | Cc1nc(N2CCO[C@H](CO)C2)ncc1-n1c2ccc(F)cc2c2[nH]ncc21 [Example 83, ((2S)-4-(5-(7-Fluoropyrazolo[4,3-b]indol-4(1H)-yl)-4-methylpyrimidin-2-yl)morpholin-2-yl)methanol] |
| 7.80 | 7.90 | Cc1nc(N)ncc1-n1c2ccc(F)cc2c2[nH]ncc21 [Example 85, 5-(7-Fluoropyrazolo[4,3-b]indol-4(1H)-yl)-4-methylpyrimidin-2-amine] |
